The results in this text go back to BindingDB's records for doi:10.1016/s0960-894x(01)00248-7 (Smithkline Beecham Pharmaceuticals, 2001).

Molecules are shown by their SMILES. Values joined by “and” are separate entries in the source; they are usually repeats but may differ in a detail not shown here. Identical values can stand only once.

The test is described as follows: Agonistic activity of the compound against C-C chemokine receptor type 3 by displacing Eotaxin radioligand,using Esonophil chemotaxis assay.

For `COC(=O)[C@H](Cc1ccc([N+](=O)[O-])cc1)NC(=O)c1cccc2ccccc12` [(S)-2-[(Naphthalene-1-carbonyl)-amino]-3-(4-nitro-phenyl)-propionic acid methyl ester], the 50% inhibitory concentration (IC50) (in general, the midpoint of a concentration-inhibition curve) is 32 nM and 25 nM.
